Test results reported in patent US9745265B2, “4-heteroaryl substituted benzoic acid compounds as RORgammaT inhibitors and uses thereof” (Merck Sharp & Dohme Corp., priority 2012, dated 2017).

Target: human RORgammaT-Ligand Binding Domain (LBD) (Homo sapiens (Human), UniProt P51449)
Assay: RORγ-Ligand Binding Domain TR-FRET Assay (SRC1_2 co-activator peptide)
Assay type: biochemical
Conditions: not given

Chain of human RORgammaT-Ligand Binding Domain (LBD) (P51449 269-508): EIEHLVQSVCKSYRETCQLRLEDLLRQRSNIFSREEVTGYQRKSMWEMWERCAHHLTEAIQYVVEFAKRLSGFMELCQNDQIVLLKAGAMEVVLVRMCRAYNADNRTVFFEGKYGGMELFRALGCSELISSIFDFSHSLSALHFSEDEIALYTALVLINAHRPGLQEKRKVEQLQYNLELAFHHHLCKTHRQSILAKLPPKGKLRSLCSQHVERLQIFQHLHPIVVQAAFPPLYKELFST

**Q.** How did the IC50 turn out when `O=C(O)c1ccc(-c2nn(C(=O)c3c(Cl)cccc3OC3CC3)c3ccccc23)cc1` [Example 1H, 4-(1-(2-chloro-6-cyclypropoxybenzoyl)-1H-indazol-3-yl)benzoic acid] was run?
**A.** Its IC50 is 39 nM.

**Q.** `CC(C(=O)n1nc(-c2ccc(C(=O)O)cc2F)c2ccccc21)c1ccccc1` (stereo not drawn) [Example 1I, 3-fluoro-4-(1-(2-phenylpropanoyl)-1H-indazol-3-yl)benzoic acid] was tested. Which IC50 did it give?
**A.** The IC50 was 4320 nM.

**Q.** How did the IC50 turn out when `COCC(=O)n1nc(-c2ccc(C(=O)O)cc2F)c2ccccc21` [Example 1J, 3-fluoro-4-[1-(methoxy-acetyl)-1H-indazol-3-yl]benzoic acid] was run?
**A.** Its IC50 is 5570 nM.

**Q.** With `O=C(O)c1ccc(-c2nn(C(=O)c3cccc4ccoc34)c3ccccc23)c(F)c1` [Example 1S, 4-[1-(1-benzofuran-7-ylcarbonyl)-1H-indazol-3-yl]-3-fluorobenzoic acid] as the compound, how does the IC50 read?
**A.** The IC50 was 1480 nM.

**Q.** With `C[C@@H]1CN(C(=O)c2ccc3c(-c4ccc(C(=O)O)cc4F)nn(C(=O)c4c(Cl)cccc4C(F)(F)F)c3c2)C[C@H](C)O1` [Example 2B, 4-(1-(2-chloro-6-(trifluoromethyl)benzoyl)-6-((2S,6R)-2,6-dimethylmorpholine-4-carbonyl)-1H-indazol-3-yl)-3-fluorobenzoic acid] as the compound, how does the IC50 read?
**A.** The IC50 was 15 nM.

**Q.** Which IC50 does the source give for `CS(=O)(=O)Nc1cc(-c2nn(C(=O)c3c(Cl)cccc3C(F)(F)F)c3cccnc23)ccc1C(=O)O` [Example 3B, 4-(1-(2-chloro-6-(trifluoromethyl)benzoyl)-1H-pyrazolo[4,3-b]pyridin-3-yl)-2-(methylsulfonamido)benzoic acid] here?
**A.** The IC50 was 1650 nM.

Same assay, conditions: HIS-tagged RORγ-LBD 3 nM, biotinylated SRC1 LXXLL peptide 100 nM, incubated overnight at 4° C., 665/615 nm ratio

**Q.** For `O=C1CCN(C(=O)c2ccc3c(-c4ccc(C(=O)O)cc4F)nn(C(=O)c4c(Cl)cccc4C(F)(F)F)c3c2)CC1` [Example 2C, 4-(1-(2-chloro-6-(trifluoromethyl)benzoyl)-6-(4-oxopiperidine-1-carbonyl)-1H-indazol-3-yl)-3-fluorobenzoic acid], which IC50 is on record?
**A.** The IC50 was 4 nM.

**Q.** For `CC(=O)Nc1cc(-c2nn(C(=O)c3c(Cl)cccc3C(F)(F)F)c3ccccc23)ccc1C(=O)O` [Example 3A, 2-acetamido-4-(1-(2-chloro-6-(trifluoromethyl)benzoyl)-1H-indazol-3-yl)benzoic acid], which IC50 is on record?
**A.** Its IC50 is 1470 nM.

**Q.** `O=C(O)c1ccc(-c2nn(C(=O)c3c(Cl)cccc3C(F)(F)F)c3cc(N4CCOCC4)ccc23)cc1` [Example 4H, 4-(1-(2-chloro-6-(trifluoromethyl)benzoyl)-6-morpholino-1H-indazol-3-yl)benzoic acid] was tested. Which IC50 did it give?
**A.** Its IC50 is 4320 nM.

**Q.** With `CN(c1ccc2c(-c3ccc(C(=O)O)cc3F)nn(C(=O)c3c(Cl)cccc3C(F)(F)F)c2c1)S(C)(=O)=O` [Example 5G, 4-(1-(2-chloro-6-(trifluoromethyl)benzoyl)-6-(N-methylmethylsulfonamido)-1H-indazol-3-yl)-3-fluorobenzoic acid] as the compound, how does the IC50 read?
**A.** The IC50 was 1500 nM.

**Q.** Which IC50 does the source give for `CC(O)C#Cc1ccc2c(-c3ccc(C(=O)O)cc3F)nn(C(=O)c3c(Cl)cccc3C(F)(F)F)c2c1` (stereo not drawn) [Example 12A, 4-(1-(2-chloro-6-(trifluoromethyl)benzoyl)-6-(3-hydroxybut-1-ynyl)-1H-indazol-3-yl)-3-fluorobenzoic acid] here?
**A.** The IC50 was 105 nM.

**Q.** For `CC(C)(C)OC(=O)Nc1cc2c(-c3ccc(C(=O)O)cc3F)cn(C(=O)c3c(Cl)cccc3C(F)(F)F)c2cn1` [Example 28A, 4-(5-(tert-butoxycarbonylamino)-1-(2-chloro-6-(trifluoromethyl)benzoyl)-1H-pyrrolo[2,3-c]pyridin-3-yl)-3-fluorobenzoic acid], which IC50 is on record?
**A.** Its IC50 is 182 nM.

**Q.** With `CC(C)(C)OC(=O)Nc1cnc2c(-c3ccc(C(=O)O)cc3F)nn(C(=O)c3c(Cl)cccc3C(F)(F)F)c2c1` [Example 29A, 4-(6-(tert-butoxycarbonylamino)-1-(2-chloro-6-(trifluoromethyl)benzoyl)-1H-pyrazolo[4,3-b]pyridin-3-yl)-3-fluorobenzoic acid] as the compound, how does the IC50 read?
**A.** The IC50 was 191 nM.

**Q.** With `Cc1cc(N2CCOCC2)cc(Cl)c1C(=O)n1nc(-c2ccc(C(=O)O)cc2F)c2ncccc21` [Example 40A, 4-(1-(2-chloro-6-methyl-4-morpholinobenzoyl)-1H-pyrazolo[4,3-b]pyridin-3-yl)-3-fluorobenzoic acid] as the compound, how does the IC50 read?
**A.** Its IC50 is 6870 nM.

**Q.** `Cc1cc(N(C)C)cc(Cl)c1C(=O)n1nc(-c2ccc(C(=O)O)cc2F)c2ncccc21` [Example 42A, 4-(1-(2-chloro-4-(dimethylamino)-6-methylbenzoyl)-1H-pyrazolo[4,3-b]pyridin-3-yl)-3-fluorobenzoic acid] was tested. Which IC50 did it give?
**A.** Its IC50 is 2320 nM.
